In US20120165346A1, “Compounds and their use as BACE inhibitors” (ASTRAZENECA AB, priority 2010, published 2012) one finds IC50 data, which are given here for 20 molecules.

pIC50: −log10 of the molar value.

Assay [1] relates to sAPPβ release, SH-SY5Y cells. Briefly: sAPPβ release assay. Type of assay: cell-based. Conditions: Homo sapiens, compounds incubated 17 h. The method, then:
SH-SY5Y cells were cultured in DMEM/F-12 with Glutamax, 10% FCS and 1% non-essential amino acids and cryopreserved and stored at −140° C. at a concentration of 7.5−9.5×10^6 cells per vial. Thaw cells and seed at a conc. of around 10000 cells/well in DMEM/F-12 with Glutamax, 10% FCS and 1% non-essential amino acids to a 384-well tissue culture treated plate, […] cell susp/well. The cell plates were then incubated for 7-24 h at 37° C., 5% CO2. The cell medium was removed, followed by addition of 30 μL compound diluted in DMEM/F-12 with Glutamax, 10% FCS, 1% non-essential amino acids and 1% PeSt to a final conc. of 1% DMSO. The compounds were incubated with the cells for 17 h (overnight) at 37° C., 5% CO2. Meso Scale Discovery (MSD) plates were used for the detection of sAPPβ release. MSD sAPPβ plates were blocked in 1% BSA in Tris wash buffer (40 μL/well) for 1 h on shake at r.t. and washed 1 time in Tris wash buffer (40 μL/well). 20 μL of medium was transferred to the pre-blocked and washed is MSD sAPPβ microplates, and the cell plates were further used in an ATP assay to measure cytotoxicity. The MSD plates were incubated with shaking at r.t. for 2 h and the media discarded. 10 μL detection antibody was added (1 nM) per well followed by incubation with shaking at r.t. for 2 h and then discarded. 40 μL Read Buffer was added per well and the plates were read in a SECTOR Imager.

Assay [2] deals with T1, human β-Secretase (AA 1-AA 460), sBACE-Fc (Homo sapiens, UniProt P56817).
T1 construct: soluble part of the human β-Secretase (AA 1-AA 460) was cloned; Fc domain of IgG1; made in house
T1 sequence (P56817 22-460): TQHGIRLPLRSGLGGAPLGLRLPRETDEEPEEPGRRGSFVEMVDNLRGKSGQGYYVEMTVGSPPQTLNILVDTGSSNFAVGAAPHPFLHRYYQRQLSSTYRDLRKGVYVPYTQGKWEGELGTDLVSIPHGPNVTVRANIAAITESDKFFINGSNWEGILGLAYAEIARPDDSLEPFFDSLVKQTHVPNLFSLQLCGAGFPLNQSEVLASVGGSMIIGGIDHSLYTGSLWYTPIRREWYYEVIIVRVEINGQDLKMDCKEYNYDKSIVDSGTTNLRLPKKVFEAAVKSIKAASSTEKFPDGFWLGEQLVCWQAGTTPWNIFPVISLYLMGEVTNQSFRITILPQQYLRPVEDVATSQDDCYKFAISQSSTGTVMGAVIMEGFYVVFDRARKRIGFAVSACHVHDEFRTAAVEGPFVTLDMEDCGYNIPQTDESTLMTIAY
Briefly: TR-FRET assay. The note with it: enzyme 2.7 μg/ml, substrate 100 nM, pH4.5, 15 minutes at r.t. It counts as biochemical. On the procedure: The β-secretase enzyme used in the TR-FRET is prepared as follows:
(§1) The cDNA for the soluble part of the human β-Secretase (AA 1-AA 460) was cloned using the ASP2-Fc10-1-IRES-GFP-neoK mammalian expression vector. The gene was fused to the Fc domain of IgG1 (affinity tag) and stably cloned into HEK 293 cells.
The enzyme (truncated form) was diluted to 6 μg/mL (stock 1.3 mg/mL) and the substrate (Europium)[…](Qsy7) to 200 nM (stock 120 μM) in reaction buffer (NaAcetate, is chaps, triton x-100, EDTA pH4.5). The robotic systems Biomek FX and Velocity 11 were used for all liquid handling and the enzyme and substrate solutions were kept on ice until they were placed in the robotic system. Enzyme (9 μA) was added to the plate then 1 μA of compound in dimethylsulphoxide was added, mixed and pre-incubated for 10 minutes. Substrate (10 μA) was then added, mixed and the reaction proceeded for 15 minutes at r.t. The reaction was stopped with the addition of Stop solution (7 μl, NaAcetate, pH 9). The fluorescence of the product was measured on a Victor II plate reader with an excitation wavelength of 340 nm and an emission wavelength of 615 nm. The assay was performed in a Costar 384 well round bottom, low volume, non-binding surface plate (Corning #3676). […] The dimethylsulphoxide control, instead of test compound, defined the 100% activity level and 0% activity was defined by wells lacking enzyme (replaced with reaction buffer).
(In general: In TR-FRET formats the signal depends on donor and acceptor labels being close together.)

Assay [3] concerns the target T1, human β-Secretase (AA 1-AA 460), sBACE-Fc. Kind of assay: Diluted TR-FRET assay. Type of assay: biochemical. The note with it: footnote a: diluted FRET assay, 50 times less enzyme, 6.5 h reaction time at r.t.; read-out: IC50 in TR-FRET assay (IC50 from the diluted FRET assay). The method, then:
as §1
The robotic systems Biomek FX and Velocity 11 were used for all liquid handling and the enzyme and substrate solutions were kept on ice until they were placed in the robotic system. Enzyme (9 μA) was added to the plate then 1 μA of compound in dimethylsulphoxide was added, mixed and pre-incubated for 10 minutes. Substrate (10 μA) was then added, mixed and the reaction proceeded for 15 minutes at r.t. The reaction was stopped with the addition of Stop solution (7 μl, NaAcetate, pH 9). […] The dimethylsulphoxide control, instead of test compound, defined the 100% activity level and 0% activity was defined by wells lacking enzyme (replaced with reaction buffer).

What is called pIC50 is the IC50 on a negative log10 scale, so that one unit is a factor of ten. On to `Cc1cc(C2(c3cccc(-c4cncc(Cl)c4)c3)N=C(N)c3c(F)cccc32)cn(C)c1=O` (stereo not drawn) [Example 18, 5-(3-Amino-1-(3-(5-chloropyridin-3-yl)phenyl)-4-fluoro-1H-isoindol-1-yl)-1,3-dimethylpyridin-2(1H)-one], for which the pIC50 in assay [1] is 8.10; in assay [2] it was 7.59. Turning to `CC#Cc1cncc(-c2cc(C3(c4cc(C)c(=O)n(CC)c4)N=C(N)c4c(F)cccc43)ccn2)c1` (single isomer, unassigned) [Example 26a, 5-(3-amino-4-fluoro-1-(5′-(prop-1-ynyl)-2,3′-bipyridin-4-yl)-1H-isoindol-1-yl)-1-ethyl-3-methylpyridin-2(1H)-one], in assay [2], the pIC50 is 5.08. With `Cn1cc(C2(c3cccc(-c4cncc(F)c4)c3)N=C(N)c3c(F)cccc32)cc(C(F)(F)F)c1=O` (stereo not drawn) [Example 12, 5-(3-Amino-4-fluoro-1-(3-(5-fluoropyridin-3-yl)phenyl)-1H-isoindol-1-yl)-1-methyl-3-(trifluoromethyl)pyridin-2(1H)-one], the pIC50 was 8.10 in assay [1] and 7.21 in assay [2]. The matching figures for `Cc1cc(C2(c3cccc(-c4cncc(F)c4)c3)N=C(N)c3c(F)cccc32)cn(C(C)C)c1=O` (stereo not drawn) [Example 7, 5-(3-Amino-4-fluoro-1-(3-(5-fluoropyridin-3-yl)phenyl)-1H-isoindol-1-yl)-1-isopropyl-3-methylpyridin-2(1H)-one]: 8.40 and 7.42. For `CC#Cc1cncc(-c2cc(C3(c4cc(C)c(=O)n(CC)c4)N=C(N)c4c(F)cccc43)ccn2)c1` (stereo not drawn) [Example 2, 5-(3-Amino-4-fluoro-1-(5′-(prop-1-ynyl)-2,3′-bipyridin-4-yl)-1H-isoindol-1-yl)-1-ethyl-3-methylpyridin-2(1H)-one], in that order: 8.70 and 7.24. In the case of `COc1cncc(-c2cccc(C3(c4cc(C)c(=O)n(C)c4)N=C(N)c4c(F)cccc43)c2)c1` (stereo not drawn) [Example 20, 5-(3-amino-4-fluoro-1-(3-(5-methoxypyridin-3-yl)phenyl)-1H-isoindol-1-yl)-1,3-dimethylpyridin-2(1H)-one], the pIC50 in assay [1] was 8.22; in assay [2], 7.51.

`CCn1cc(C2(c3cccc(-c4cncc(F)c4)c3)N=C(N)c3c(F)cccc32)cc(C)c1=O` (stereo not drawn) [Example 9, 5-(3-Amino-4-fluoro-1-(3-(5-fluoropyridin-3-yl)phenyl)-1H-isoindol-1-yl)-1-ethyl-3-methylpyridin-2(1H)-one]: the negative logarithm of the IC50 (pIC50) in assay [1] was 8.40; in assay [3], 7.89. On to `Cn1cc(C2(c3cccc(-c4cncnc4)c3)N=C(N)c3c(F)cccc32)cc(C(F)(F)F)c1=O` (stereo not drawn) [Example 13, 5-(3-Amino-4-fluoro-1-(3-(pyrimidin-5-yl)phenyl)-1H-isoindol-1-yl)-1-methyl-3-(trifluoromethyl)pyridin-2(1H)-one], for which the results for the pIC50 in assay [1] and in assay [2] were 7.62 and 7.09, respectively. Regarding `CC#Cc1cncc(-c2cc(C3(c4cc(C)c(=O)n(CC)c4)N=C(N)c4c(F)cccc43)ccn2)c1` (single isomer, unassigned) [Example 26, 5-(3-amino-4-fluoro-1-(5′-(prop-1-ynyl)-2,3′-bipyridin-4-yl)-1H-isoindol-1-yl)-1-ethyl-3-methylpyridin-2(1H)-one], the pIC50 was 9.15 in assay [1] and 8.40 in assay [3].

On to `CCn1cc(C2(c3cccc(-c4cncc(F)c4)c3)N=C(N)c3c(F)cccc32)cc(C(F)F)c1=O` (stereo not drawn) [Example 22, 5-(3-Amino-4-fluoro-1-(3-(5-fluoropyridin-3-yl)phenyl)-1H-isoindol-1-yl)-3-(difluoromethyl)-1-ethylpyridin-2(1H)-one], for which the pIC50 in assay [1] was 8.05; in assay [2] it was 7.15. The matching figures for `COc1cncc(-c2cccc(C3(c4cc(C(F)(F)F)c(=O)n(C)c4)N=C(N)c4c(F)cccc43)c2)c1` (stereo not drawn) [Example 11, 5-(3-Amino-4-fluoro-1-(3-(5-methoxypyridin-3-yl)phenyl)-1H-isoindol-1-yl)-1-methyl-3-(trifluoromethyl)pyridin-2(1H)-one]: 7.34 and 7.27. For `Cn1cc(C2(c3cccc(-c4cncc(C#N)c4)c3)N=C(N)c3c(F)cccc32)cc(C(F)(F)F)c1=O` (stereo not drawn) [Example 10, 5-(3-(3-Amino-4-fluoro-1-(1-methyl-6-oxo-5-(trifluoromethyl)-1,6-dihydropyridin-3-yl)-1H-isoindol-1-yl)phenyl)nicotinonitrile], in that order: 7.70 and 7.05.

In the case of `CC#Cc1cccc(-c2cccc([C@@]3(c4cc(C)c(=O)n(CC)c4)N=C(N)c4c(F)cccc43)c2)n1` [Example 24, (R)-5-(3-Amino-4-fluoro-1-(3-(6-(prop-1-ynyl)pyridin-2-yl)phenyl)-1H-isoindol-1-yl)-1-ethyl-3-methylpyridin-2(1H)-one], the pIC50 in assay [1] was 7.66; in assay [2], 6.85. For the molecule `Cc1cc(C2(c3cccc(-c4cncc(F)c4)c3)N=C(N)c3c(F)cccc32)cn(C)c1=O` (stereo not drawn) [Example 19, 5-(3-Amino-4-fluoro-1-(3-(5-fluoropyridin-3-yl)phenyl)-1H-isoindol-1-yl)-1,3-dimethylpyridin-2(1H)-one], the pIC50 in assay [1] is 8.52; in assay [2], 7.21. As to `CCn1cc([C@]2(c3cccc(-c4cncc(C)c4F)c3)N=C(N)c3c(F)cccc32)cc(C)c1=O` [Example 4, (R)-5-(3-Amino-4-fluoro-1-(3-(4-fluoro-5-methylpyridin-3-yl)phenyl)-1H-isoindol-1-yl)-1-ethyl-3-methylpyridin-2(1H)-one], the pIC50 in assay [1] was 7.26; in assay [2] it was 7.29. The matching figures for `Cc1cc(C2(c3cccc(-c4cncc(C#N)c4)c3)N=C(N)c3c(F)cccc32)cn(C(C)C)c1=O` (stereo not drawn) [Example 5, 5-(3-(3-Amino-4-fluoro-1-(1-isopropyl-5-methyl-6-oxo-1,6-dihydropyridin-3-yl)-1H-isoindol-1-yl)phenyl)nicotinonitrile]: 8.00 and 7.24. On to `Cc1cc(C2(c3ccnc(-c4cncc(Cl)c4)c3)N=C(N)c3c(F)cccc32)cn(C)c1=O` (stereo not drawn) [Example 15, 5-(3-Amino-1-(5′-chloro-2,3′-bipyridin-4-yl)-4-fluoro-1H-isoindol-1-yl)-1,3-dimethylpyridin-2(1H)-one], for which the pIC50 in assay [1] was 7.85; in assay [2] it was 6.98. For `Cc1cc(C2(c3cccc(-c4cncc(C#N)c4)c3)N=C(N)c3c(F)cccc32)cn(C)c1=O` (stereo not drawn) [Example 17, 5-(3-(3-Amino-1-(1,5-dimethyl-6-oxo-1,6-dihydropyridin-3-yl)-4-fluoro-1H-isoindol-1-yl)phenyl)nicotinonitrile], in that order: 7.77 and 7.18. The matching figures for `CC#Cc1cncc(-c2cc(C3(c4cc(CC)c(=O)n(CC)c4)N=C(N)c4c(F)cccc43)ccn2)c1` (stereo not drawn) [Example 16, 5-(3-Amino-4-fluoro-1-(5′-(prop-1-ynyl)-2,3′-bipyridin-4-yl)-1H-isoindol-1-yl)-1,3-diethylpyridin-2(1H)-one]: 9.00 and 7.23. On to `Cc1cc(C2(c3cccc(-c4cncnc4)c3)N=C(N)c3c(F)cccc32)cn(C)c1=O` (stereo not drawn) [Example 14, 5-(3-Amino-4-fluoro-1-(3-(pyrimidin-5-yl)phenyl)-1H-isoindol-1-yl)-1,3-dimethylpyridin-2(1H)-one], for which the pIC50 in assay [1] is 7.96; in assay [2], 7.24.
